Where no end group is shown, it is not given here. The star is where a group is joined. Octanoyl = CCCCCCCC(=O)*

For one assay, the system named is Liver 16S rRNA. The assay can be described thus: Bacterial translocation, liver 16S rRNA real time PCR. The assay is classed as in vivo. The note with it: Day 7 after 10 Gy WBI; 20 nmol/rat for 6 days from 24 h. How it is done: (§1) Animal model of whole body irradiation. Rats were exposed to whole body irradiation (WBI) of 10 Gray (Gy) using a Gammacell® 1000 Irradiator (Atomic Energy of Canada Ltd) [radiation source: Cesium-137 (^137Cs)] delivered at a dose rate of about 2.5 GY/min. The animals were sedated with intra-peritoneal pentobarbital (40 mg/kg BW) prior to irradiation. During radiation, the container rotated continuously in front of the radiation source for even exposure. The animals were then returned to their cages, and food and water were provided.
(§2) Blood and Tissue Collection after WBI. Rats exposed to 10 Gy WBI were treated with 20 nmol/rat human ghrelin once a day for 6 days starting at 24 h after radiation. […]
DNA isolation and total bacteria quantification. […] Bacterial quantification was performed using 16S rRNA gene-targeted primer, forward: 5′-AAC GCG AAG AAC CTT AC-3′ (SEQ ID NO:2) and reverse: 5′-CGG TGT GTA CAA GAC CC-3′ (SEQ ID NO:3). […] The PCR conditions for total bacterial quantification were 95° C. for 1 min and 40 cycles of 95° C. for 20 sec and 60° C. for 1 min. […] Serially diluted genomic DNA of bacterial isolates was used as real time PCR control for bacterial quantification. A standard curve was generated from the bacterial DNA control and we consistently detected between 100 ng to 0.1 pg E. coli DNA. Bacterial counts were expressed as ng/mg liver tissue.

A further assay relates to rat ileum. Nature of the assay: Gut permeability, ex-vivo isolated everted ileal sac (FD4 clearance). The assay is classed as in vivo. The note with it: Day 7 after 10 Gy WBI, 20 nmol/rat for 6 days from 24 h. How it is done: as §1, §2
Gut Permeability. Small intestinal mucosal barrier function was assessed by using the ex-vivo isolated everted ileal sac as originally described by Wattanasirichaigoon et al. in 1999 [26] and used by others. […] The length and the diameter of the gut sac were then measured. […] Fluorescence measurements were made with a CYTOFLUOR 2 fluorescence plate reader (PerSeptive Biosystems, Framingham, Mass.) at an excitation wavelength of 480 nm and an emission wavelength of 520 nm. Gut permeability was expressed as the mucosal-to-serosal clearance of FD4 as described in detail by Wattanasirichaigoon et al.. […]

The subject of the next assay is CD73. Nature of the assay: Jejunal CD73 mRNA expression by real time PCR. The assay is classed as in vivo, rat. The settings on record: jejunum, Day 7 after 10 Gy WBI; vehicle decreased by 62%. How it is done:
as §1
Blood and Tissue Collection after WBI. Rats exposed to 10 Gy WBI were treated with 20 nmol/rat human ghrelin once a day for 6 days starting at 24 h after radiation. At the 7th day, rats were euthanized, and blood, liver and the small intestine were removed under sterile conditions. The blood was allowed to clot and following centrifugation, the serum was transferred into pyrogenic free sterile tubes, and stored at −80° C. until further analysis. Liver (0.25 g) was snap-frozen in liquid nitrogen and stored at −80° C. for subsequent bacterial translocation analysis. Small intestine, 10-15 cm of the ileum, was harvested for gut permeability studies, 10 cm of jejunum was collected for histopathology, and the remaining 10 cm jejunal segment each was collected for RNA and protein analyses.
Total RNA extraction and real time PCR. […]
(In general: Real-time PCR tracks product formation cycle by cycle.)

For “ghrelin (GSS(Octanoyl)FLSPEHQRVQQRKESKKPPAKLQPR; listed as Homo sapiens) [human ghrelin]”, in the assay on Liver 16S rRNA, the “liver 16S rRNA gene (bacterial counts), reduction from Vehicle” value worked out at 61%. The “gut permeability, reduction from Vehicle” value in the assay on rat ileum is 38%. The “CD73 mRNA expression, restored by” value with CD73 is listed as 70%.

Values taken from US10265383B2, “Treatment of radiation injury using ghrelin” (priority 2014, dated 2019).
